This is an account of results in patent publication US10144746B2 (GLOBAL BLOOD THERAPEUTICS, INC., priority 2015, dated 2018).

SMILES strings stand for the structures. Structures can show the parent of a compound that is named as a salt.

Human plasma kallikrein, sequence (P03952 391-638): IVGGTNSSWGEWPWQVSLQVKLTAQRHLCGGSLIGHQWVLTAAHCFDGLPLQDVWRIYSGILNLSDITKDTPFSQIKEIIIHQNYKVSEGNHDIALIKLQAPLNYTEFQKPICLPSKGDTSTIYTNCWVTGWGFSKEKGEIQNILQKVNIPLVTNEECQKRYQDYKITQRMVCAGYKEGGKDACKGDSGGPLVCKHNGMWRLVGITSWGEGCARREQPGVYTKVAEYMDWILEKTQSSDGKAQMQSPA
Human plasma kallikrein, sequence (P03952 20-390 partner): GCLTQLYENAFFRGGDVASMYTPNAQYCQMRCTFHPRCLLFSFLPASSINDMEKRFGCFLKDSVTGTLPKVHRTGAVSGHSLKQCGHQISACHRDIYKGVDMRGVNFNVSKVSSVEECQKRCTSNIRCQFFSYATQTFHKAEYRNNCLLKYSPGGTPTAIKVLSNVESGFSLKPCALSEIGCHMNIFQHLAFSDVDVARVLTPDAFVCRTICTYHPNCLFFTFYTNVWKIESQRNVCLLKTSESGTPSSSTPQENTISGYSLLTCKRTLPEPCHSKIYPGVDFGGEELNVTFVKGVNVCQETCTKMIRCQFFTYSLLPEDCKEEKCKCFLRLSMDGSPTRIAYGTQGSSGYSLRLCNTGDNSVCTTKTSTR

One test addresses Human plasma kallikrein (Homo sapiens (Human), UniProt P03952). The test can be described thus: In vitro plasma kallikrein inhibition assay (chromogenic substrate D-Pro-Phe-Arg-pNa, absorbance at 405 nm, IC50 determination). The class given is biochemical.
Details: not given
In the case of `COc1cc(N)nc(C)c1CNC(=O)c1ccc2c(c1)C1OC2c2ccc(-c3ccc(F)cc3F)cc21` (centres unmarked) [Example 80], the “KLKB1 pIC50” value is 7.57.
Regarding `COc1cc(N)nc(C)c1CNC(=O)c1ccc2c(c1)C1OC2c2ccc(-c3ccc(Cl)c(F)c3F)cc21` (centres unmarked) [Example 109, trifluoroacetate salt], the “KLKB1 pIC50” value is 7.59.
As for `NC(=NO)c1ccc(CNC(=O)c2ccc3c(c2)[C@@H]2O[C@H]3c3ccc(-c4ccc(F)cc4F)cc32)cc1` [Example 203, (1R,8S)-12-(2,4-difluorophenyl)-N-{[4-(N′-hydroxycarbamimidoyl)phenyl]methyl}-15-oxatetracyclo[6.6.1.0^2,^7.0^9,1^4] pentadeca-2,4,6,9,11,13-hexaene-4-carboxamide], the “KLKB1 pIC50” value is listed as 5.98.
On to `NC(=NO)c1ccc(CNC(=O)c2ccc3c(c2)[C@@H]2O[C@H]3c3ccc(-c4ccccc4F)cc32)cc1` [Example 204, (1R,8S)-12-(2-fluorophenyl)-N-{[4-(N′-hydroxycarbamimidoyl)phenyl]methyl}-15-oxatetracyclo[6.6.1.0^2,^7.0^9,1^4] pentadeca-2,4,6,9,11,13-hexaene-4-carboxamide], for which the “KLKB1 pIC50” value is 6.03.
Still for that read-out and setting: as for `CON=C(N)c1ccc(CNC(=O)c2ccc3c(c2)[C@@H]2O[C@H]3c3ccc(-c4ccc(F)cc4F)cc32)cc1` [Example 225], the figure is 5.
As for `CON=C(N)c1ccc(CNC(=O)c2ccc3c(c2)[C@@H]2O[C@H]3c3ccc(-c4ccccc4F)cc32)cc1` [Example 240, (1R,8S)-12-(2-fluorophenyl)-N-{[4-(N′-methoxy-carbamimidoyl)phenyl]methyl}-15-oxatetracyclo-[6.6.1.0^2,^7.0^9,1^4]pentadeca-2,4,6,9,11,13-hexaene-4-carboxamide], the “KLKB1 pIC50” value was 4.
Consider `CON=C(N)c1ccc(CNC(=O)c2ccc3c(c2)[C@@H]2O[C@H]3c3ccc(-c4ccc(F)cc4)cc32)cc1` [Example 241, (1R,8S)-12-(4-fluorophenyl)-N-{[4-(N′-methoxy-carbamimidoyl)pheny]methyl}-15-oxatetracyclo-[6.6.1.0^2,^7.0^9,1^4]pentadeca-2,4,6,9,11,13-hexaene-4-carboxamide], for which the “KLKB1 pIC50” value is on record as 4.
The same measure, in the same setting: as for `CON=C(N)c1ccc(CNC(=O)c2ccc3c(c2)[C@@H]2O[C@H]3c3ccc(-c4ccc(Cl)s4)cc32)cc1` [Example 251, (1S,8R)-12-(5-chlorothiophen-2-yl)-N-({4-[N′-methoxycarbamimidoyl]phenyl}methyl)-15-oxatetracyclo[6.6.1.0^2,^7.0^9,1^4] pentadeca-2,4,6,9,11,13-hexaene-4-carboxamide], the figure is 4; as for `CON=C(N)c1cc(F)c(CNC(=O)c2ccc3c(c2)[C@@H]2O[C@H]3c3ccc(-c4ccc(F)cc4F)cc32)c(F)c1` [Example 255, (1R,8S)-N-({2,6-difluoro-4-[N′-methoxy-carbamimidoyl]phenyl}methyl)-12-(2,4-difluorophenyl)-15-oxatetracyclo[6.6.1.0^2,^7.0^9,1^4]-pentadeca-2,4,6,9,11,13-hexaene-4-carboxamide], 6.18.
For `NC(=NO)c1cc(F)c(CNC(=O)c2ccc3c(c2)[C@@H]2O[C@H]3c3ccc(-c4ccc(F)cc4F)cc32)c(F)c1` [Example 266, (1R,8S)-N-({2,6-difluoro-4-[N′-hydroxy-carbamimidoyl]phenyl}methyl)-12-(2,4-difluorophenyl)-15-oxatetracyclo[6.6.1.0^2,^7.0^9,1^4]-pentadeca-2,4,6,9,11,13-hexaene-4-carboxamide], the “KLKB1 pIC50” value is recorded as 6.99.
Same read-out and setting: as for `CON=C(N)c1ccc(CNC(=O)c2ccc3c(c2)[C@@H]2O[C@H]3c3ccc(C4CC4)cc32)cc1` [Example 272, (1R,8S)-12-cyclopropyl-N-({4-[N′-methoxy-carbamimidoyl]phenyl}methyl)-15-oxatetracyclo[6.6.1.0^2,^7.0^9,1^4] pentadeca-2,4,6,9,11,13-hexaene-4-carboxamide], the figure is 5.61.
Still for that read-out and setting: in the case of `CON=C(N)c1cc(F)c(CNC(=O)c2ccc3c(c2)[C@@H]2O[C@H]3c3ccc(-c4nccs4)cc32)c(F)c1` [Example 274] it was 5.86; in that of `NC(=NO)c1ccc(CNC(=O)c2ccc3c(c2)[C@@H]2O[C@H]3c3ccc(-c4ccc(Cl)s4)cc32)cc1` [Example 276, (1S,8R)-12-(5-chlorothiophen-2-yl)-N-{[4-(N′-hydroxycarbamimidoyl)phenyl]methyl}-15-oxatetracyclo[6.6.1.0^2,^7.0^9,1^4] pentadeca-2,4,6,9,11,13-hexaene-4-carboxamide], 4.

Still in this test, the particulars now being: read-out: KLKB1 pIC50 (converted).
On to `N=C(N)c1ccc(CNC(=O)c2ccc3c(c2)[C@@H]2O[C@H]3c3ccc(C4CC4)cc32)nc1` (single isomer, unassigned) [Example 327], for which the IC50 is 427 nM.
For the compound `CC(C)c1ccc2c(c1)[C@H]1O[C@@H]2c2ccc(C(=O)NCc3ccc(C(=N)N)cc3)cc21` (single isomer, unassigned) [Example 328], the IC50 was 7.08 nM.
Still for that read-out and setting: as for `N=C(N)c1ccc(CNC(=O)c2ccc3c(c2)[C@@H]2O[C@H]3c3ccc(-c4ccc(F)cc4)cc32)c(F)c1` (single isomer, unassigned) [Example 329], the figure is 1 nM.
For the compound `Cc1cc(C(=N)N)cc(C)c1CNC(=O)c1ccc2c(c1)[C@@H]1O[C@H]2c2ccc(C3CC3)cc21` (single isomer, unassigned) [Example 331], the IC50 is 1 nM.
Take `N=C(N)c1ccc(CNC(=O)c2ccc3c(c2)[C@@H]2O[C@H]3c3ccc(-c4ccc(F)cc4F)cc32)nc1` (single isomer, unassigned) [Example 332]: the IC50 is 63.1 nM.
Consider `N=C(N)c1cc(F)c(CNC(=O)c2ccc3c(c2)[C@@H]2O[C@H]3c3ccc(N4CCS(=O)(=O)CC4)cc32)c(F)c1` (single isomer, unassigned) [Example 336], for which the IC50 is 5.01 nM.
On to `N=C(N)c1ccc(CNC(=O)c2ccc3c(c2)[C@@H]2O[C@H]3c3ccc(N4CCS(=O)(=O)CC4)cc32)cc1` (single isomer, unassigned) [Example 337], for which the IC50 is 26.9 nM.
Still for that read-out and setting: in the case of `COc1cc(CNC(=O)c2ccc3c(c2)[C@@H]2O[C@H]3c3ccc(-c4ccc(F)cc4F)cc32)ccc1C(=N)N` (single isomer, unassigned) [Example 338] it was 5.89 nM; in that of `O=C(NC1CCCNCC1)c1ccc2c(c1)[C@@H]1O[C@H]2c2ccc(-c3ccc(F)cc3F)cc21` (single isomer, unassigned) [Example 343], 100000 nM; in that of `Nc1cc(NC(=O)c2ccc3c(c2)[C@@H]2O[C@H]3c3ccc(-c4ccc(F)cc4F)cc32)ccn1` (single isomer, unassigned) [Example 347], 100000 nM.
As for `CCc1cc2c(cc1CC)[C@H]1O[C@@H]2c2ccc(C(=O)NCc3ccc(C(=N)N)cc3)cc21` (single isomer, unassigned) [Example 392], the IC50 is 1 nM.
Turning to `N=C(N)c1ccc(CNC(=O)c2ccc3c(c2)[C@H]2O[C@@H]3c3cc(C4CC4)c(C4CC4)cc32)cc1` (single isomer, unassigned) [Example 399], the IC50 is 100 nM.
On to `N=C(N)c1ccc(CNC(=O)c2ccc3c(c2)[C@@H]2O[C@H]3c3cc(C4CC4)c(C4CC4)cc32)cc1` (single isomer, unassigned) [Example 400], for which the IC50 is 1 nM.
